Experimental data: patent US20240343717A1, “MICROBIOCIDAL PYRAZOLE DERIVATIVES” (SYNGENTA CROP PROTECTION AG, priority 2021, published 2024)

Tests used:
[1] = system: Mycosphaerella graminicola (Septoria tritici); experiment: Mycosphaerella graminicola (Septoria tritici) / liquid culture (Septoria blotch); assay type: cell-based; settings: Zymoseptoria tritici, growth inhibition photometrically 4-5 days after application, read-out: control of Mycosphaerella graminicola
Description: (§1) Example B16: Mycosphaerella graminicola (Septoria tritici)/Liquid Culture (Septoria Blotch) Conidia of the fungus from cryogenic storage are directly mixed into nutrient broth (PDB potato dextrose broth). After placing a (DMSO) solution of test compound into a microtiter plate (96-well format), the nutrient broth containing the fungal spores is added. The test plates are incubated at 24° C. and the inhibition of growth is determined photometrically 4-5 days after application.

[2] = system: Pyrenophora teres; experiment: Pyrenophora teres / barley / leaf disc preventative (net blotch); assay type: in vivo; settings: foliar, barley leaf segments, inoculated 2 days after application
Description: Example B14: Pyrenophora teres/Barley/Leaf Disc Preventative (Net Blotch) Barley leaf segments cv. Hasso are placed on agar in a multiwell plate (24-well format) and sprayed with the formulated test compound diluted in water. The leaf segments are inoculated with a spore suspension of the fungus 2 days after application. The inoculated leaf segments are incubated at 20° C. and 65% rh under a light regime of 12 h light/12 h darkness in a climate cabinet and the activity of a compound is assessed as disease control compared to untreated when an appropriate level of disease damage appears in untreated check leaf segments (5-7 days after application).

[3] = system: Botryotinia fuckeliana (Botrytis cinerea); experiment: Botryotinia fuckeliana (Botrytis cinerea) / liquid culture (gray mould); assay type: cell-based; settings: growth inhibition photometrically 3-4 days after application, read-out: control of Botryotinia fuckeliana
Description: as §1, with “B2: Botryotinia fuckeliana (Botrytis cinerea)/Liquid” for “B16: Mycosphaerella graminicola (Septoria tritici)/Liquid”, “(Gray Mould)” for “(Septoria Blotch)”, “(Vogels” for “(PDB potato dextrose”, “3-4” for “4-5”

[4] = system: Monographella nivalis (Microdochium nivale); experiment: Monographella nivalis (Microdochium nivale) / liquid culture (foot rot cereals); assay type: cell-based; settings: growth inhibition photometrically 4-5 days after application, read-out: control of Monographella nivalis
Description: as §1, with “B9: Monographella nivalis (Microdochium nivale)/Liquid” for “B16: Mycosphaerella graminicola (Septoria tritici)/Liquid”, “(Foot Rot Cereals)” for “(Septoria Blotch)”

[5] = system: Glomerella lagenarium (Colletotrichum lagenarium); experiment: Glomerella lagenarium (Colletotrichum lagenarium) / liquid culture (anthracnose); assay type: cell-based; settings: Colletotrichum orbiculare, growth inhibition photometrically 3-4 days after application, read-out: control of Glomerella lagenarium
Description: as §1, with “B3: Glomerella lagenarium (Colletotrichum lagenarium)/Liquid” for “B16: Mycosphaerella graminicola (Septoria tritici)/Liquid”, “(Anthracnose)” for “(Septoria Blotch)”, “measured” for “determined”, “3-4” for “4-5”

[6] = system: Mycosphaerella arachidis (Cercospora arachidicola); experiment: Mycosphaerella arachidis (Cercospora arachidicola) / liquid culture (early leaf spot); assay type: cell-based; settings: growth inhibition photometrically 4-5 days after application, read-out: control of Mycosphaerella arachidis
Description: as §1, with “B10:” for “B16:”, “arachidis (Cercospora arachidicola)/Liquid” for “graminicola (Septoria tritici)/Liquid”, “(Early Leaf Spot)” for “(Septoria Blotch)”

| SMILES | inhibition of growth at 20 ppm [1] | pest or weed control at 200 ppm [2] | inhibition of growth at 20 ppm [3] | inhibition of growth at 20 ppm [4] | inhibition of growth at 20 ppm [5] | inhibition of growth at 20 ppm [6] |
| --- | --- | --- | --- | --- | --- | --- |
| Cn1cc(C(C)(CNC(=O)c2cc(-c3ccc(F)cc3F)on2)c2ncccc2Cl)cn1 (stereo not shown) [Compound P-2, N-[2-(3-chloro-2-pyridyl)-2-(1-methylpyrazol-4-yl)propyl]-5-(2,4-difluorophenyl) isoxazole-3-carboxamide] | ≥ 80% | ≥ 80% | ≥ 80% | ≥ 80% |  |  |
| Cn1cc(C(C)(CNC(=O)c2nnc(-c3ccc(F)cc3F)s2)c2ccc(Cl)cn2)cn1 (stereo not shown) [Compound P-17, N-[2-(5-chloro-2-pyridyl)-2-(1-methylpyrazol-4-yl)propyl]-5-(2,4-difluorophenyl)-1,3,4-thiadiazole-2-carboxamide] | ≥ 80% |  |  | ≥ 80% | ≥ 80% | ≥ 80% |
| Cn1cc(C(C)(CNC(=O)c2cc(-c3ccc(F)cc3F)on2)c2ncccc2Br)cn1 (stereo not shown) [Compound P-53, N-[2-(3-bromo-2-pyridyl)-2-(1-methylpyrazol-4-yl)propyl]-5-(2,4-difluorophenyl) isoxazole-3-carboxamide] |  | ≥ 80% |  | ≥ 80% |  |  |
| C=C(C)COc1cc(Cl)nc(C(C)(CNC(=O)c2cc(-c3ccc(F)cc3F)on2)c2cnn(C)c2)c1 (stereo not shown) [Compound P-68, N-[2-[6-chloro-4-(2-methylallyloxy)-2-pyridyl]-2-(1-methylpyrazol-4-yl)propyl]-5-(2,4-difluorophenyl) isoxazole-3-carboxamide] | ≥ 80% |  | ≥ 80% | ≥ 80% | ≥ 80% | ≥ 80% |
| Cn1cc(C(C)(CNC(=O)c2cc(-c3ccc(F)cc3F)on2)c2ccc(Cl)cn2)cn1 (stereo not shown) [Compound P-20, N-[2-(5-chloro-2-pyridyl)-2-(1-methylpyrazol-4-yl)propyl]-5-(2,4-difluorophenyl) isoxazole-3-carboxamide] | ≥ 80% | ≥ 80% |  | ≥ 80% | ≥ 80% |  |
| CNC(=O)c1cccc(C(C)(CNC(=O)c2cc(-c3ccc(F)cc3F)on2)c2cnn(C)c2)n1 (stereo not shown) [Compound P-45, 5-(2,4-difluorophenyl)-N-[2-[6-(methylcarbamoyl)-2-pyridyl]-2-(1-methylpyrazol-4-lyl)propyl]isoxazole-3-carboxamide] |  | ≥ 80% |  |  |  |  |
| CCS(=O)(=O)c1cccc(C(C)(CNC(=O)c2nnc(-c3ccc(F)cc3F)s2)c2cnn(C)c2)n1 (stereo not shown) [Compound P-3, 5-(2,4-difluorophenyl)-N-[2-(6-ethylsulfonyl-2-pyridyl)-2-(1-methylpyrazol-4-yl)propyl]-1,3,4-thiadiazole-2-carboxamide] |  | ≥ 80% |  |  |  |  |
| CNC(=O)c1ccc(C(C)(CNC(=O)c2cc(-c3ccc(F)cc3F)on2)c2cnn(C)c2)nc1 (stereo not shown) [Compound P-56, 5-(2,4-difluorophenyl)-N-[2-[5-(methylcarbamoyl)-2-pyridyl]-2-(1-methylpyrazol-4-yl)propyl]isoxazole-3-carboxamide] |  | ≥ 80% |  |  |  |  |
| Cn1ncc(C(CNC(=O)c2cc(-c3ccc(F)cc3F)on2)c2cccc(C#N)n2)c1Cl (stereo not shown) [Compound P-117] | ≥ 80% |  | ≥ 80% | ≥ 80% | ≥ 80% | ≥ 80% |
| Cn1cc(C(C)(CNC(=O)c2cc(C3CC3)on2)c2cccc(Cl)n2)cn1 (stereo not shown) [Compound P-78, N-[2-(6-chloro-2-pyridyl)-2-(1-methylpyrazol-4-yl)propyl]-5-cyclopropyl-isoxazole-3-carboxamide] | ≥ 80% |  |  | ≥ 80% |  | ≥ 80% |
| CC(=O)Nc1cccc(C(C)(CNC(=O)c2cc(-c3ccc(F)cc3F)on2)c2cnn(C)c2)n1 (stereo not shown) [Compound P-52, N-[2-(6-acetamido-2-pyridyl)-2-(1-methylpyrazol-4-yl)propyl]-5-(2,4-difluorophenyl) isoxazole-3-carboxamide] |  | ≥ 80% |  |  |  |  |
